The values that follow come from patent publication US20260007133A1, “HERBICIDAL COMPOSITION COMPRISING AZINE COMPOUNDS” (BASF SE, priority 2022, published 2026).

Holding throughout (assay type): in vivo
One assay relates to Amaranthus retroflexus. In words: Greenhouse post-emergence (POST) herbicidal test on AMARE. How it is done: (§1) The culture containers used were plastic pots containing loamy sand with approximately 3.0% of humus as substrate. The seeds of the test plants were sown separately for each species.
(§2) For the post-emergence treatment, the test plants were grown to a plant height of from 3 to 15 cm, depending on the plant habit, and only then treated with the active compounds which had been suspended or emulsified in water. To this end, the test plants were either sown directly, and grown in the same containers, or they were first grown separately as seedlings and transplanted into the test containers a few days prior to treatment.
(§3) Depending on the species, the plants were kept at 10-25° C. and 20-35° C., respectively.
(§4) The test period extended over 2 to 4 weeks. During this time, the plants were tended and their response to the individual treatments was evaluated.
(§5) Evaluation was carried out using a scale from 0 to 100. 100 means no emergence of the plants, or complete destruction of at least the above-ground parts, and 0 means no damage or normal course of growth. A good herbicidal activity is given at values of at least 70, and very good herbicidal activity is given at values of at least 85.
(§6) If not stated differently, the respective components A and B, and if appropriate, C were formulated as a 5% by weight strength emulsion concentrate and, with addition of the amount of solvent system, introduced into the spray liquor used for applying the active compound.
(§7) As indicated application was either post emergent (POST) at the respective growth stage (GS) of the weed (BBCH code), or pre-emergent (PRE). […]

The subject of assay [1] is Abutilon theophrasti. In words: Greenhouse post-emergence (POST) herbicidal test on ABUTH. The conditions noted are these: for % activity: ABUTH POST. The procedure:
as §1, §2, §3, §4, §5, §6, §7

A further assay has as its system Commelina benghalensis. In words: Greenhouse pre-emergence (PRE) herbicidal test on COMBE. The procedure: as §1
(§8) The containers were irrigated gently to promote germination and growth and subsequently covered with transparent plastic hoods until the plants had rooted.
as §3, §4, §5, §7

A further assay concerns Setaria viridis. In words: Greenhouse pre-emergence (PRE) herbicidal test on SETVI.
From the text: as §1
For the pre-emergence treatment, the active compounds, suspended or emulsified in water, were applied directly after sowing by means of finely distributing nozzles. The containers were irrigated gently to promote germination and growth and subsequently covered with transparent plastic hoods until the plants had rooted. This cover caused uniform germination of the test plants unless this was adversely affected by the active compounds.
as §3, §4, §5, §6, §7

The subject of assay [2] is Abutilon theophrasti. In words: Greenhouse pre-emergence (PRE) herbicidal test on ABUTH. The conditions noted are these: for % activity: 20 DAT. The procedure: as §1, §8, §3, §4, §5, §7
A further assay deals with Ambrosia artemisiifolia. As to the kind of experiment: Greenhouse pre-emergence (PRE) herbicidal test on AMBEL. The conditions noted are these: PRE, AMBEL. How it is done:
as §1, §8, §3, §4, §5, §7

For a further assay, the system named is Alopecurus myosuroides. As to the kind of experiment: Greenhouse pre-emergence (PRE) herbicidal test on ALOMY. The settings on record: Alopecurus myosuroides, pre-emergence, 432 h, read-out: % activity. The procedure: as §1, §8, §3, §4, §5, §7
Another assay has as its system Lolium multiflorum. As to the kind of experiment: Greenhouse pre-emergence (PRE) herbicidal test on LOLMU. The settings on record: Lolium multiflorum, pre-emergence, read-out: % activity. The procedure: as §1, §8, §3, §4, §5, §7
Assay [3] deals with Euphorbia heterophylla. As to the kind of experiment: Greenhouse pre-emergence (PRE) herbicidal test on EPHHL. The conditions noted are these: Euphorbia heterophylla, pre-emergence. How it is done:
as §1, §8, §3, §4, §5, §7

Assay [4] deals with Euphorbia heterophylla. In words: Greenhouse post-emergence (POST) herbicidal test on EPHHL. How it is done:
as §1, §2, §3, §4, §5, §6, §7

Assay [5] relates to Echinochloa crus-galli. As to the kind of experiment: Greenhouse post-emergence (POST) herbicidal test on ECHCG. The conditions noted are these: for % activity: ECHCG POST. The procedure: as §1, §2, §3, §4, §5, §6, §7
For assay [6], the system named is Echinochloa crus-galli. As to the kind of experiment: Greenhouse pre-emergence (PRE) herbicidal test on ECHCG. The conditions noted are these: Echinochloa crus-galli, pre-emergence, 432 h, read-out: % activity. The procedure: as §1, §8, §3, §4, §5, §7
A further assay has as its system Geranium pusillum. In words: Greenhouse post-emergence (POST) herbicidal test on GERPU. The settings on record: for % activity: GERPU POST. How it is done:
as §1, §2, §3, §4, §5, §6, §7

The subject of another assay is Digitaria sanguinalis. As to the kind of experiment: Greenhouse post-emergence (POST) herbicidal test on DIGSA. How it is done: as §1, §2, §3, §4, §5, §6, §7
Where [7] appears, read: Geranium pusillum, post-emergence, 432 h, read-out: % activity.
Setting [8] is: Digitaria sanguinalis, post-emergence, 432 h, read-out: % activity.
Where [9] appears, read: Echinochloa crus-galli, post-emergence, 480 h, read-out: % activity.
[10] abbreviates: Abutilon theophrasti, pre-emergence, read-out: % activity.

`COC[C@H](C)N(C(=O)CCl)c1c(C)csc1C` [Dimethenamid-P, dimethenamid-P]: the “% activity” value with Amaranthus retroflexus (AMARE POST, use rate 200 gai/ha) was determined as 0%; with Abutilon theophrasti [1] (use rate 50 gai/ha), 0%; in the assay with Abutilon theophrasti [1] (use rate 200 gai/ha), 25%.
For the compound `COc1cc(OC)n2nc(NS(=O)(=O)c3c(C(F)(F)F)ccnc3OC)nc2n1` [Pyroxsulam, pyroxsulam], the “% activity” value in the assay with Commelina benghalensis (PRE, COMBE, Pyroxsulam solo 0.25 gai/ha, 20 DAT) is recorded as 10%; in the assay on Setaria viridis (PRE, SETVI, Pyroxsulam solo 0.25 gai/ha, 20 DAT), 10%; in the assay with Abutilon theophrasti [2] (PRE, ABUTH, Pyroxsulam solo 0.25 gai/ha), 0%; in the assay on Abutilon theophrasti [2] (PRE, ABUTH, Pyroxsulam solo 0.5 gai/ha), 5%; in the assay on Ambrosia artemisiifolia (Pyroxsulam solo 0.25 gai/ha, 20 DAT) it was 15%.
For the compound `N#Cc1cc(Br)c(O)c(Br)c1` [Bromoxynil, bromoxynil], the pest or weed control at 30 g/ha was found to be 0% with Alopecurus myosuroides; 0% in the assay on Amaranthus retroflexus (Amaranthus retroflexus, post-emergence, 432 h, read-out: % activity); 0% with Lolium multiflorum (432 h); 0% in the assay on Euphorbia heterophylla [3] (432 h, read-out: % activity); 0% in the assay on Commelina benghalensis (Commelina benghalensis, pre-emergence, 432 h, read-out: % activity); 70% in the assay on Euphorbia heterophylla [4] (Euphorbia heterophylla, post-emergence, 432 h, read-out: % activity). Besides, the pest or weed control at 30 g/ha came out at 0% in the assay on Echinochloa crus-galli [5] (Echinochloa crus-galli, post-emergence, 432 h, read-out: % activity); 0% in the assay with Echinochloa crus-galli [6]; 5% with Geranium pusillum (setting [7]); 0% with Digitaria sanguinalis (setting [8]). The pest or weed control at 120 g/ha in the assay on Alopecurus myosuroides is 0%; with Lolium multiflorum (432 h), 0%; in the assay on Echinochloa crus-galli [6], 0%; in the assay with Geranium pusillum (setting [7]), 20%; with Abutilon theophrasti [2] (Abutilon theophrasti, pre-emergence, 432 h, read-out: % activity), 0%; in the assay with Digitaria sanguinalis (setting [8]), 15%.
Consider `O=C(O)COc1ccc(Cl)cc1Cl` [2,4-D], for which the “% activity” value in the assay on Euphorbia heterophylla [4] (EPHHL POST, use rate 150 gai/ha) came to 65%; in the assay with Echinochloa crus-galli [5] (use rate 37.5 gai/ha), 20%; in the assay with Geranium pusillum (use rate 150 gai/ha) it was 70%.
Regarding `C#CC(C)(C)NC(=O)c1cc(Cl)cc(Cl)c1` [Propyzamide, propyzamide], the pest or weed control at 250 g/ha in the assay with Amaranthus retroflexus (Amaranthus retroflexus, post-emergence, 432 h, POST, AMARE, Propyzamide solo 250 gai/ha, 18 DAT, read-out: % activity) came to 20%; with Euphorbia heterophylla [3] (432 h, PRE, EPHHL, Propyzamide solo 250 gai/ha, 18 DAT, read-out: % activity), 10%; with Euphorbia heterophylla [4] (Euphorbia heterophylla, post-emergence, 432 h, POST, EPHHL, Propyzamide solo 250 gai/ha, 18 DAT, read-out: % activity), 0%; in the assay with Echinochloa crus-galli [5] (Echinochloa crus-galli, post-emergence, 432 h, POST, ECHCG, Propyzamide solo 250 gai/ha, 18 DAT, read-out: % activity), 0%; in the assay on Abutilon theophrasti [2] (Abutilon theophrasti, pre-emergence, 432 h, PRE, ABUTH, Propyzamide solo 250 gai/ha, 18 DAT), 0%; in the assay with Ambrosia artemisiifolia (Ambrosia artemisiifolia, pre-emergence, 432 h, Propyzamide solo 250 gai/ha, 18 DAT, read-out: % activity), 0%. Besides, the pest or weed control at 1000 g/ha stood at 50% with Amaranthus retroflexus (Amaranthus retroflexus, post-emergence, 432 h, POST, AMARE, Propyzamide solo 1000 gai/ha, 18 DAT); 15% in the assay on Euphorbia heterophylla [3] (432 h, PRE, EPHHL, Propyzamide solo 1000 gai/ha, 18 DAT); 5% in the assay with Abutilon theophrasti [1] (Abutilon theophrasti, post-emergence, 432 h, POST, ABUTH, Propyzamide solo 1000 gai/ha, 18 DAT); 30% with Echinochloa crus-galli [5] (Echinochloa crus-galli, post-emergence, 432 h, POST, ECHCG, Propyzamide solo 1000 gai/ha, 18 DAT); 20% in the assay with Geranium pusillum (Geranium pusillum, post-emergence, 432 h, POST, GERPU, Propyzamide solo 1000 gai/ha, 18 DAT); 10% in the assay with Abutilon theophrasti [2] (Abutilon theophrasti, pre-emergence, 432 h, PRE, ABUTH, Propyzamide solo 1000 gai/ha, 18 DAT).
Turning to `COc1c(Cl)ccc(Cl)c1C(=O)O` [Dicamba, dicamba], the inhibition at 31.25 g/ha was found to be 60% in the assay on Abutilon theophrasti [1] (Abutilon theophrasti, post-emergence, POST, ABUTH, use rate 31.25 gai/ha) and 10% in the assay with Euphorbia heterophylla [4] (Euphorbia heterophylla, post-emergence, POST, EPHHL, use rate 31.25 gai/ha). Further, the inhibition at 62.5 g/ha is 65% in the assay on Abutilon theophrasti [1] (Abutilon theophrasti, post-emergence, POST, ABUTH, use rate 62.5 gai/ha) and 35% in the assay with Euphorbia heterophylla [4] (Euphorbia heterophylla, post-emergence, POST, EPHHL, use rate 62.5 gai/ha).
On to `CCCC(=NOCC(C)Oc1ccc(Cl)cc1)C1=C(O)CC(C2CCCSC2)CC1=O` (centres unmarked) [Profoxydim, profoxydim], for which the “% activity” value in the assay on Abutilon theophrasti [1] (use rate 6.3 gai/ha) worked out at 20%; with Echinochloa crus-galli [5] (use rate 6.3 gai/ha) it was 80%; with Echinochloa crus-galli [5] (use rate 12.5 gai/ha), 85%; in the assay with Geranium pusillum (use rate 6.3 gai/ha), 0%; in the assay on Digitaria sanguinalis (DIGSA POST, use rate 6.3 gai/ha), 60%.
Take `CP(=O)(O)CCC(N)C(=O)O` (centres unmarked) [Glufosinate-Ammonium, glufosinate-ammonium]: the inhibition at 75 g/ha came to 30% with Abutilon theophrasti [1] (Abutilon theophrasti, post-emergence, 480 h, read-out: % activity); 0% in the assay with Echinochloa crus-galli [5] (setting [9]); 35% with Geranium pusillum (Geranium pusillum, post-emergence, 480 h, read-out: % activity). For the same compound, the inhibition at 150 g/ha in the assay with Euphorbia heterophylla [4] (Euphorbia heterophylla, post-emergence, 480 h, read-out: % activity) was determined as 45%; with Echinochloa crus-galli [5] (setting [9]) it was 30%; in the assay with Digitaria sanguinalis (Digitaria sanguinalis, post-emergence, 480 h, read-out: % activity) it was 95%.
On to `C/C(=N\NC(=O)Nc1cc(F)cc(F)c1)c1ncccc1C(=O)O` [Diflufenzopyr, diflufenzopyr], for which the inhibition at 3.8 g/ha with Lolium multiflorum, with Euphorbia heterophylla [3] (read-out: % activity) and with Abutilon theophrasti [2] (setting [10]) was 0% in each case. Moreover, the inhibition at 15 g/ha worked out at 50% in the assay on Setaria viridis (Setaria viridis, pre-emergence, read-out: % activity) and 0% in the assay with Abutilon theophrasti [2] (setting [10]).
